{
  "source": "patent US8211945B2",
  "about": "“Carba-sugar amine derivative and glycolipid metabolic disorder treating agent containing the same as active ingredient” (Seikagaku Corporation, priority 2001, dated 2012)",
  "key": {"[1]": {"molecular_target": "T1, human normal β-galactosidase (GP8) (Homo sapiens, UniProt P16278)", "T1 sequence (P16278 29-677)": "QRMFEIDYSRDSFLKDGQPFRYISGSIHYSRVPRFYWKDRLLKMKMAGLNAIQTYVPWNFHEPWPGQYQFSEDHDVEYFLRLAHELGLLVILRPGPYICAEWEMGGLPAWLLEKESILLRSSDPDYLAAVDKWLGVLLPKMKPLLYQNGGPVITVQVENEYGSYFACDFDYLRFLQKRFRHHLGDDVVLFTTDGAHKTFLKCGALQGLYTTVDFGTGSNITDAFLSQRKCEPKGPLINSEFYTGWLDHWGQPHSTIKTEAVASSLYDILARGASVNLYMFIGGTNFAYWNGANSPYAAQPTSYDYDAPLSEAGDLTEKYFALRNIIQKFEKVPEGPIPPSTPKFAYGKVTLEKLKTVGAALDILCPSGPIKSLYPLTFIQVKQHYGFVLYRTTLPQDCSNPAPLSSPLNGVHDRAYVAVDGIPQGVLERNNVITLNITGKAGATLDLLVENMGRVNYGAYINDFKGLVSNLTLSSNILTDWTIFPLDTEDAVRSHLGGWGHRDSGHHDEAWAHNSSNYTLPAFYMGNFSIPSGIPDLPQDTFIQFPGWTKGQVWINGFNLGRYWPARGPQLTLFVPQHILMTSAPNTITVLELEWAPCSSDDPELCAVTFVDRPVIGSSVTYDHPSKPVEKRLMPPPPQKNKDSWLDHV", "experiment": "β-Galactosidase activity in model cells (knockout mouse fibroblasts with transferred gene) cultured 4 days with substance", "type": "cell-based", "set-up": "made in house; host or cells: SV40-immortalized β-galactosidase knockout mouse skin fibroblasts", "source_text": "Cultured skin fibroblasts of a β-galactosidase-deficient knockout mouse was immortalized by introducing an SV40 viral gene, and enzyme genes integrated into pSV2neo and an expression vector were also introduced simultaneously, thereby establishing a model cell (Brain Dev., 23(5), 284-287, 2001). The genes used are human normal (GP8) and mutant β-galactosidase gene Y316C, G123R (infantile GM1-gangliosidosis), R201C (juvenile GM1-gangliosidosis), 151T, T82M, R201H, R263S, R457Q (adult GM1-gangliosidosis), W273L, Y83H, R482H and R482C (Morquio-B disease) (Hum. Genet., 93(2), 109-114, 1994).\nAs a control substance, 0.5 mM N-(n-butyl)-deoxygalactonojirimycin (NB-DGJ: The Journal of Biological Chemistry, 269, 27108-27114 (1994)) was used, and the substance 18 of the present invention was used in an amount of 0.2 μM.\nSpecifically, after culturing the model cell for 4 days using a cell culture medium (10% FCS DMEM) containing the substance 18 of the present invention, the resulting cells were recovered and diluted such that the amount of protein in the suspension became a predetermined level, and then enzyme activity in the diluted suspension was measured. Using 4-methylumbelliferyl-β-D-galactopyranoside as the fluorescent substrate, the enzyme activity during 30 minutes was measured at 37° C."}, "[2]": {"molecular_target": "T2, human mutant β-galactosidase R201C (Homo sapiens, UniProt P16278, R201C)", "T2 construct": "from tissue", "T2 sequence (P16278 29-677 R201C)": "T1 sequence (P16278 29-677) with R173C", "experiment": "Tissue migration and recovery of β-galactosidase activity, 1 week oral administration to recombinant mice", "type": "in vivo", "details": "for β-galactosidase activity, Test group: mice, 1 mM in drinking water, 1 week", "experimental": "One week thereafter, the mice were sacrificed to excise the cerebrum, the cerebellum, the heart, the lungs, the liver, the spleen, the kidney, a muscle (femoral muscle) and plasma. Also, tail tissues were used for the purpose of verifying changes in the β-galactosidase activity in the same individual before and after the administration. Each organ was crushed under ice-cooling using a homogenizer, and then the suspension of crushed cells was centrifuged at 8,000×g for 30 minutes. Thereafter, the supernatant fraction was recovered and used as an enzyme solution. The amount of protein in this enzyme solution was measured by the Bradford method, and the β-galactosidase activity was measured. With regard to the measurement of β-galactosidase activity, the enzyme activity during 30 minutes was measured at 37° C. using 4-methylumbelliferyl-β-D-galactopyranoside as the fluorogenic substrate. […] Three animals were used in each group to calculate the mean value."}},
  "note": "Numbering of substitutions follows the chain as printed. Where “and” joins values, the source holds several entries; their conditions need not be identical. Identical values can stand only once.",
  "data": [
    {"smiles": "CCCCCCCCN[C@@H]1C=C(CO)[C@H](O)C(O)[C@@H]1O", "note": "(stereo partly drawn) [Substance 18, N-octyl-5a-carba-α-L-arabino-hexo-5(5a)-enopyranosylamine]", "values": [
      {"measurement": "Relative ratio (×100%)", "setting": "[1]; GP8, substance 18 vs control", "result": "1.05 ×100%"},
      {"measurement": "enzyme activity", "setting": "[1]; transferred gene GP8, 0.2 μM, 4 days", "result": 78.87},
      {"measurement": "β-galactosidase activity, Test group", "setting": "[2]; Cerebellum", "result": "55.4 nmol/mg protein/30 minutes"},
      {"measurement": "Improving degree", "setting": "[2]; Cerebellum, test group vs control", "result": 5.3, "unit": "Times"},
      {"measurement": "β-galactosidase activity, Test group", "setting": "[2]; Cerebrum", "result": "50.5 nmol/mg protein/30 minutes"},
      {"measurement": "Improving degree", "setting": "[2]; Cerebrum, test group vs control", "result": 6.0, "unit": "Times"},
      {"measurement": "β-galactosidase activity, Test group", "setting": "[2]; Heart", "result": "241.2 nmol/mg protein/30 minutes"},
      {"measurement": "Improving degree", "setting": "[2]; Heart, test group vs control", "result": 14.2, "unit": "Times"},
      {"measurement": "β-galactosidase activity, Test group", "setting": "[2]; Kidney", "result": "171.1 nmol/mg protein/30 minutes"},
      {"measurement": "Improving degree", "setting": "[2]; Kidney, test group vs control", "result": 6.2, "unit": "Times"},
      {"measurement": "β-galactosidase activity, Test group", "setting": "[2]; Liver", "result": "186.8 nmol/mg protein/30 minutes"},
      {"measurement": "Improving degree", "setting": "[2]; Liver, test group vs control", "result": 4.7, "unit": "Times"},
      {"measurement": "β-galactosidase activity, Test group", "setting": "[2]; Lungs", "result": "98.9 nmol/mg protein/30 minutes"},
      {"measurement": "Improving degree", "setting": "[2]; Lungs, test group vs control", "result": 12.4, "unit": "Times"},
      {"measurement": "β-galactosidase activity, Test group", "setting": "[2]; Muscle (femoral muscle)", "result": "91.4 nmol/mg protein/30 minutes"},
      {"measurement": "Improving degree", "setting": "[2]; Muscle (femoral muscle), test group vs control", "result": 11.3, "unit": "Times"},
      {"measurement": "β-galactosidase activity, Test group", "setting": "[2]; Plasma", "result": "23.0 nmol/mg protein/30 minutes"},
      {"measurement": "Improving degree", "setting": "[2]; Plasma, test group vs control", "result": 7.9, "unit": "Times"},
      {"measurement": "β-galactosidase activity, Test group", "setting": "[2]; Spleen", "result": "266.2 nmol/mg protein/30 minutes"},
      {"measurement": "Improving degree", "setting": "[2]; Spleen, test group vs control", "result": 17.1, "unit": "Times"},
      {"measurement": "β-galactosidase activity, After feeding", "setting": "[2]; Tail (administered group), after 1 week feeding", "result": "518.8 nmol/mg protein/30 minutes"},
      {"measurement": "Improving degree", "setting": "[2]; Tail (administered group), after vs before feeding, same individual", "result": "~8 Times and 6.7 Times"},
      {"measurement": "β-galactosidase activity improved in average in the test group", "setting": "[2]; average of organs, test group vs control", "result": 9.1, "unit": "times"},
      {"measurement": "level of the activity obtained in the cerebrum and the cerebellum", "setting": "[2]; cerebrum and cerebellum, test group", "result": "about 50 nmol/mg protein/30 minutes"}
    ]},
    {"smiles": "CCCCN1C[C@H](O)[C@@H](O)[C@@H](O)[C@H]1CO", "note": "[Control, N-(n-butyl)-deoxygalactonojirimycin, reference compound]", "values": [
      {"measurement": "enzyme activity, Control", "setting": "[1]; transferred gene GP8, control substance 0.5 mM NB-DGJ", "result": 74.94}
    ]}
  ]
}
